From US11161837B2, “Benzofuran derivatives for the treatment of hepatitis C” (BRISTOL-MYERS SQUIBB COMPANY, priority 2016, dated 2021) come the findings set out here.

Assay [1] has as its target T1, NS5B proteins of HCV genotype 1b (Con1) (Hepatitis C virus genotype 1b, UniProt Q9WMX2).
T1 construct: Each untagged protein was expressed with an 18 amino acid C-terminal truncation to enhance the solubility; made in house; host or cells: E. coli BL21(DE3), pET21a
Briefly: HCV NS5B RdRp enzyme assay. The class given is biochemical. Conditions: 1b enzyme. As for the experimental part: HCVNS5B RdRp Cloning, Expression, and Purification.
The cDNA encoding NS5B proteins of HCV genotype 1b (Con1), a genotype 1b variant with amino acid 316 mutated from cysteine to asparagine, and genotype 2a (JFH-1), were cloned into the pET21a expression vector. Each untagged protein was expressed with an 18 amino acid C-terminal truncation to enhance the solubility. The E. coli competent cell line BL21(DE3) was used for expression of the protein. Cultures were grown at 37° C. for ˜4 hours until the cultures reached an optical density of 2.0 at 600 nm. The cultures were cooled to 20° C. and induced with 1 mM IPTG. Fresh ampicillin was added to a final concentration of 50 μg/mL and the cells were grown overnight at 20° C.
Cell pellets (3 L) were lysed for purification to yield 15-24 mgs of purified NS5B. The lysis buffer consisted of 20 mM Tris-HCl, pH 7.4, 500 mM NaCl, 0.5% triton X-100, 1 mM DTT, 1 mM EDTA, 20% glycerol, 0.5 mg/mL lysozyme, 10 mM MgCl2, 15 ug/mL deoxyribonuclease I, and Complete TM protease inhibitor tablets (Roche). After addition of the lysis buffer, frozen cell pellets were resuspended using a tissue homogenizer. To reduce the viscosity of the sample, aliquots of the lysate were sonicated on ice using a microtip attached to a Branson sonicator. The sonicated lysate was centrifuged at 100,000×g for 30 minutes at 4° C. and filtered through a 0.2 μm filter unit (Corning).
The protein was purified using two sequential chromatography steps: Heparin sepharose CL-6B and polyU sepharose 4B. The chromatography buffers were identical to the lysis buffer but contained no lysozyme, deoxyribonuclease I, MgCl2 or protease inhibitor and the NaCl concentration of the buffer was adjusted according to the requirements for charging the protein onto the column. Each column was eluted with a NaCl gradient which varied in length from 5-50 column volumes depending on the column type. After the final chromatography step, the resulting purity of the enzyme is >90% based on SDS-PAGE analysis. The enzyme was aliquoted and stored at −80° C.
HCVNS5B RdRp Enzyme Assay.
An on-bead solid phase homogeneous assay was used in a 384-well format to assess NS5B inhibitors (WangY-K, Rigat K, Roberts S, and Gao M (2006) Anal Biochem, 359: 106-111). The biotinylated oligo dT12 primer was captured on streptavidin-coupled imaging beads (GE, RPNQ0261) by mixing primer and beads in 1× buffer and incubating at room temperature for three hours. Unbound primer was removed after centrifugation. The primer-bound beads were resuspended in 3× reaction mix (20 mM Hepes buffer, pH 7.5, dT primer coupled beads, poly A template, ^3H-UTP, and RNAse inhibitor (Promega N2515)). Compounds were serially diluted 1:3 in DMSO and aliquoted into assay plates. Equal volumes (10 μL) of water, 3× reaction mix, and enzyme in 3× assay buffer (60 mM Hepes buffer, pH 7.5, 7.5 mM MgCl2, 7.5 mM KCl, 3 mM DTT, 0.03 mg/mL BSA, 6% glycerol) were added to the diluted compound on the assay plate. Final concentration of components in 384-well assay: 0.36 nM template, 15 nM primer, 0.29 μM ^3H-UTP (0.3 μCi), 1.6 U/μL RNAse inhibitor, 7 nM NS5B enzyme, 0.01 mg/mL BSA, 1 mM DTT, and 0.33 μg/μL beads, 20 mM Hepes buffer, pH 7.5, 2.5 mM MgCl2, 2.5 mM KCl, and 0.1% DMSO.
Reactions were allowed to proceed from 4 to 24 hours at 30° C. For 24 hour reactions, enzyme and inhibitors were pre-incubated for 24 hours before adding template and primer. Reactions were terminated by the addition of 50 mM EDTA (10 μL). After incubating for at least 15 minutes, plates were read on an Amersham LEADseeker multimodality imaging system.
IC50 values for compounds were determined using ten different [I]. IC50 values were calculated from the inhibition using the four-parameter logistic formula y=A+((B−A)/(1+((C/x)^D))), where A and B denote minimal and maximal % inhibition, respectively, C is the IC50, D is hill slope and x represents compound concentration.

For assay [2], the system named is genotype 1b (Con-1) HCV replicon in Huh-7 cells. Kind of assay: HCV replicon luciferase assay. It is filed as cell-based. The conditions noted are these: 1b replicon, Huh-7, Renilla luciferase, 3 days incubation. As for the experimental part: The cell lines used to evaluate compounds consist of a human hepatocyte derived cell line (Huh-7) that constitutively expresses a genotype 1b (Con-1) HCV replicon or a genotype 1b (Con-1) HCV replicon with an asparagine replacing the cysteine at amino acid 316, or a genotype 2a (JFH-1) replicon, containing a Renilla luciferase reporter gene. These cells were maintained in Dulbecco's modified Eagle medium (DMEM) containing 10% FBS, 100 U/mL penicillin/streptomycin and 1.0 mg/mL G418.
HCV Replicon Luciferase Assay.
To evaluate compound efficacy, titrated compounds were transferred to sterile 384-well tissue culture treated plates, and the plates were seeded with HCV replicon cells (50 μL at a density of 2.4×10^3 cells/well) in DMEM containing 4% FBS (final DMSO concentration at 0.5%). After 3 days incubation at 37° C., cells were analyzed for Renilla Luciferase activity using the EnduRen substrate (Promega cat # E6485) according to the manufacturer's directions. Briefly, the EnduRen substrate was diluted in DMEM and then added to the plates to a final concentration of 7.5 μM. The plates were incubated for at least 1 h at 37° C. then read on a Viewlux Imager (PerkinElmer) using a luminescence program. The 50% effective concentration (EC50) was calculated using the four-parameter logistic formula noted above.

T1 sequence (Q9WMX2 2420-2992): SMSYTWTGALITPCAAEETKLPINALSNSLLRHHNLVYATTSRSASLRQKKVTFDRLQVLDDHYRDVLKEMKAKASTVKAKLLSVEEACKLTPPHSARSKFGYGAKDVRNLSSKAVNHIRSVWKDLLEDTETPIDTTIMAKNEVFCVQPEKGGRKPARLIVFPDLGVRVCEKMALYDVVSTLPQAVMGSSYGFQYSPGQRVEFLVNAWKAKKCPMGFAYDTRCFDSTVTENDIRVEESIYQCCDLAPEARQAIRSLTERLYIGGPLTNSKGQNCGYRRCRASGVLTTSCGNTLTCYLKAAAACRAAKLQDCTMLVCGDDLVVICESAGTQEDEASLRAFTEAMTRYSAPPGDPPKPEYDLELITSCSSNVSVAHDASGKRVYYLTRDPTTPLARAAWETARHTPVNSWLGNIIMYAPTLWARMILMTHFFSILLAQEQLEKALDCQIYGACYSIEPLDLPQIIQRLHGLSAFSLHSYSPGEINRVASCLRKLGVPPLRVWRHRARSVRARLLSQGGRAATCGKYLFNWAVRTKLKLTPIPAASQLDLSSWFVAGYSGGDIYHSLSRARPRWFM

With `CNC(=O)c1c(-c2ccc(F)cc2)oc2ccc(-c3cc(C(=O)NC4(c5ncccn5)CC(O)C4)ccc3C)c(F)c12` (single isomer, unassigned) [Example 5a, 4-Fluoro-2-(4-fluorophenyl)-5-(5-((3-hydroxy-1-(pyrimidin-2-yl)cyclobutyl)carbamoyl)-2-methylphenyl)-N-methylbenzofuran-3-carboxamide], the IC50 in assay [1] was 1280 nM. Moreover, in assay [2], the EC50 was found to be 3860 nM.
For `CNC(=O)c1c(-c2ccc(F)cc2)oc2ccc(-c3cc(C(=O)NC4(c5ncccn5)CC(O)C4)ccc3C)c(F)c12` (single isomer, unassigned) [Example 5b, 4-Fluoro-2-(4-fluorophenyl)-5-(5-((3-hydroxy-1-(pyrimidin-2-yl)cyclobutyl)carbamoyl)-2-methylphenyl)-N-methylbenzofuran-3-carboxamide], in that order: 230 nM and 1190 nM.
In assay [1], `CNC(=O)c1c(-c2ccc(F)cc2)oc2ccc(-c3cc(C(=O)NC4(c5ncccn5)CC(O)C4)cc(F)c3C)c(F)c12` (single isomer, unassigned) [Example 9a, 4-Fluoro-5-(3-fluoro-5-((3-hydroxy-1-(pyrimidin-2-yl)cyclobutyl)carbamoyl)-2-methylphenyl)-2-(4-fluorophenyl)-N-methylbenzofuran-3-carboxamide] yielded an IC50 of 570 nM. Moreover, in assay [2] (Hepatitis C virus, Huh-7, 72 h), a half-maximal response (EC50) required 470 nM.
Turning to `CNC(=O)c1c(-c2ccc(F)cc2)oc2ccc(-c3cc(C(=O)NC4(c5ncccn5)CC(O)C4)cc(F)c3C)c(F)c12` (single isomer, unassigned) [Example 9b, 4-Fluoro-5-(3-fluoro-5-((3-hydroxy-1-(pyrimidin-2-yl)cyclobutyl)carbamoyl)-2-methylphenyl)-2-(4-fluorophenyl)-N-methylbenzofuran-3-carboxamide], the IC50 in assay [1] worked out at 310 nM. In assay [2], this compound gave an EC50 of 300 nM.
For `CNC(=O)c1c(-c2ccc(F)cc2)oc2ccc(-c3cc(C(=O)NC4(c5ncccn5)CC(OC)C4)ccc3C)c(F)c12` (single isomer, unassigned) [Example 10a, 4-Fluoro-2-(4-fluorophenyl)-5-(5-((3-methoxy-1-(pyrimidin-2-yl)cyclobutyl)carbamoyl)-2-methylphenyl)-N-methylbenzofuran-3-carboxamide], in that order: 60 nM and 30 nM.
In assay [1], `CNC(=O)c1c(-c2ccc(F)cc2)oc2ccc(-c3cc(C(=O)NC4(c5ncccn5)CC(OC)C4)ccc3C)c(F)c12` (single isomer, unassigned) [Example 10b, 4-Fluoro-2-(4-fluorophenyl)-5-(5-((3-methoxy-1-(pyrimidin-2-yl)cyclobutyl)carbamoyl)-2-methylphenyl)-N-methylbenzofuran-3-carboxamide] displayed an IC50 of 10 nM. This compound also yielded an EC50 in assay [2] of 4.43 nM.
On the same counts, the results for `CNC(=O)c1c(-c2ccc(F)cc2)oc2ccc(-c3cc(C(=O)NC4(c5ncccn5)CC(OC)C4)cc(F)c3C)c(F)c12` (single isomer, unassigned) [Example 11a, 4-Fluoro-5-(3-fluoro-5-((3-methoxy-1-(pyrimidin-2-yl)cyclobutyl)carbamoyl)-2-methylphenyl)-2-(4-fluorophenyl)-N-methylbenzofuran-3-carboxamide] are 90 nM and 40 nM.
`CNC(=O)c1c(-c2ccc(F)cc2)oc2ccc(-c3cc(C(=O)NC4(c5ncccn5)CC(OC)C4)cc(F)c3C)c(F)c12` (single isomer, unassigned) [Example 11b, 4-Fluoro-5-(3-fluoro-5-((3-methoxy-1-(pyrimidin-2-yl)cyclobutyl)carbamoyl)-2-methylphenyl)-2-(4-fluorophenyl)-N-methylbenzofuran-3-carboxamide] registered an IC50 in assay [1] of 30 nM. In addition, in assay [2], a half-maximal response (EC50) required 4.56 nM.
On the same counts, the results for `CNC(=O)c1c(-c2ccc(F)cc2)oc2ccc(-c3cc(C(=O)NC4(c5ncccn5)CC(O)C4)c(OC)cc3C)c(F)c12` (single isomer, unassigned) [Example 12a, 4-Fluoro-2-(4-fluorophenyl)-5-(5-((3-hydroxy-1-(pyrimidin-2-yl)cyclobutyl)carbamoyl)-4-methoxy-2-methylphenyl)-N-methylbenzofuran-3-carboxamide] are 760 nM and 430 nM.
Regarding `CNC(=O)c1c(-c2ccc(F)cc2)oc2ccc(-c3cc(C(=O)NC4(c5ncccn5)CC(O)C4)c(OC)cc3C)c(F)c12` (single isomer, unassigned) [Example 12b, 4-Fluoro-2-(4-fluorophenyl)-5-(5-((3-hydroxy-1-(pyrimidin-2-yl)cyclobutyl)carbamoyl)-4-methoxy-2-methylphenyl)-N-methylbenzofuran-3-carboxamide], the IC50 in assay [1] is 210 nM. The compound further displayed an EC50 in assay [2] of 140 nM.
On the same counts, the results for `CNC(=O)c1c(-c2ccc(F)cc2)oc2ccc(-c3cc(C(=O)NC4(c5ncccn5)CC(OC)C4)c(OC)cc3C)c(F)c12` (single isomer, unassigned) [Example 13a, 4-Fluoro-2-(4-fluorophenyl)-5-(4-methoxy-5-((3-methoxy-1-(pyrimidin-2-yl)cyclobutyl)carbamoyl)-2-methylphenyl)-N-methylbenzofuran-3-carboxamide] are 30 nM and 30 nM.
With `CNC(=O)c1c(-c2ccc(F)cc2)oc2ccc(-c3cc(C(=O)NC4(c5ncccn5)CC(OC)C4)c(OC)cc3C)c(F)c12` (single isomer, unassigned) [Example 13b, 4-Fluoro-2-(4-fluorophenyl)-5-(4-methoxy-5-((3-methoxy-1-(pyrimidin-2-yl)cyclobutyl)carbamoyl)-2-methylphenyl)-N-methylbenzofuran-3-carboxamide], half-maximal inhibition in assay [1] (IC50) required 20 nM. Moreover, in assay [2], a half-maximal response (EC50) required 6.44 nM.
On the same counts, the results for `CNC(=O)c1c(-c2ccc(F)cc2)oc2cc(CCC(F)(F)F)c(-c3cccc(C(=O)NC4(c5ncccn5)CC(OC(F)F)C4)c3)cc12` (single isomer, unassigned) [Example 29a] are 6.14 nM and 4.07 nM.
